Assay results published in article PMC5131319, “Occurrence, temporal trends, and half-lives of perfluoroalkyl acids (PFAAs) in occupational workers in China” (Scientific Reports, 2016).
Several values for one entry are separate records, joined by “and”; a condition that tells them apart may be missing. Equal entries are not always repeated. Where two headings read alike, the source gives them in different places.

Legend:
[1] = Daily renal clearance rate (Clrenal) and serum-to-urine ratio from paired serum and urine; type: in vivo, human; details: for Renal clearance rate (PFOA): individual workers
From the text: The positive correlations between the PFAAs in the serum and the paired urine samples were highly statistically significant, with correlation coefficients of 0.87, 0.64, and 0.72 for PFHxS, PFOA, and PFOS, respectively, (p < 0.01). […] Additionally, the relative abundances of PFOS, PFHxS, and PFOA between the serum and paired urine samples were quite different. The relative abundances in the serum are 64%, 24%, and 12%, respectively, while those in the urine were 19%, 31%, and 40%, respectively. […] Moreover, the ratio of serum-to-urine concentrations (S/U) might be an indicator for PFAA excretion in humans because PFAAs could concentrate in serum while urine excretion is considered an important PFAA elimination pathway. The GM values of S/U for PFHxS, PFOA, and PFOS in all samples were 697, 288, and 1782, respectively, indicating the difficulty in PFAA renal elimination from the workers. To exclude the potential effect of individual differences related to demographic information such as body weight and gender, the daily renal clearance rate (Clrenal) was introduced in the study. Clrenal is a parameter defined in Eq (3) that adjusts the S/U through body weight and the gender-specific daily urine excretion volume.
Paired samples with either concentration under the LOD were set as LOD/2 in the Clrenal study. The urine excretion volumes of males and females were set at 1.4 and 1.2 L/day in the study, respectively, and the body weight values of individual workers were obtained from our questionnaires. The calculated Clrenal values for PFHxS, PFOA, PFOS ranged from 2.0 × 10^−4 to 2.3, 9.0 × 10^−5 to 2.4, and 5.0 × 10^−5 to 0.54 mL day^−1 kg^−1 with GM values of 0.023, 0.067 and 0.010 mL day^−1 kg^−1, respectively (Fig. 3). The minimum values of the PFAAs Clrenal were calculated on the basis of LOD/2 instead of ND (not detected) in the present study. […] However, Zhang et al. observed that the Clrenal of PFHxS was the lowest among these 3 type of PFAAs[28]. The median Clrenal of PFAAs in the present study was similar to that of Zhou et al.’s study (0.012 mL day^−1 kg^−1 for PFHxS, 0.061 mL day^−1 kg^−1 for PFOA, and 0.010 mL day^−1 kg^−1 for PFOS)[39]. In contrast, as noted elsewhere, the Clrenal values of PFOA were the highest among those of the three PFAAs[28][38]. The most recent study on the elevated serum concentrations of PFAAs in fishery employees from Tangxun Lake also stated that the median Clrenal of PFOA (0.061 mL day^−1 kg^−1) was higher than those of the PFHxS and PFOS (0.012 and 0.010 mL day^−1 kg^−1)[39]. […] Moreover, the renal clearance rates of PFAAs in humans were not obviously influenced by the PFAAs level in the serum. […] In addition, gender could not be discounted. The Clrenal values of PFOS for the male workers were significant lower than those for the females (p < 0.01). Wong et al. studied the elimination rate constant of PFOS in a USA population and speculated that there might be other sex-specific elimination routes other than menstruation between men and women. No significant differences were found between the Clrenal values of PFOA and PFHxS for the males and females tested in the study.

[2] = cited from earlier work
[3] = Half-life estimated by daily clearance rates (first-order model, k = Cltotal/Vd); type: in vivo, human; details: for half-life: human, serum and urine, other: occupational exposure
From the text: Olsen et al.[21] found linear relationship between the logarithm of serum PFAAs concentration and time, and a first order model was adopted to estimate the half-lives of PFAAs. The elimination of PFAAs in humans was also described with the following equation: […]
If we set C(t) as 1/2C0, then the half-life
where k is the elimination rate constant. We calculated k using two approaches in the present study. In the first approach, k is defined as Cltotal/Vd, where Vd stands for the volume of distribution of PFAAs in the human body. Cltotal represents the total daily PFAAs clearance in the human body; for men and women older than 50, it refers to renal clearance, while for young women, it is defined as the sum of menstrual clearance and renal clearance. To keep consistency with other studies, Vd of PFOS and PFHxS were set at 230 mL kg^−1, and Vd of PFOA was set at 170 mL kg^−1 in this study. In the second approach, k is defined as the average annual decline rates of PFAAs in workers who participated in this study.
We used a first order model to estimate the half-lives of PFAAs in workers (Eq (2)). k was defined as […], where Cltotal referred to renal clearance for men and women older than 50 and to the sum of menstrual clearance and renal clearance for young women. According to Eq (2), the half-lives of PFHxS, PFOA, and PFOS for the occupational workers tested ranged from 0.51–3799 years, 0.44–3663 years, and 0.76–30475 years, with GM and median values of 14.7 and 11.7, 4.1 and 4.0, 32.6 and 21.6 years, respectively (Table 2). […] The GM values of the half-lives of PFHxS, PFOA, and PFOS for men here were 19.9, 4.7, and 60.9 years, respectively, while those for women were 7.5, 3.1, and 8.0 years, respectively. The half-lives estimated by the limited clearance route information could be considered as the upper limits for PFAAs. It seemed likely that the unrealistically long half-life estimates derived from the urinary data were actually evidence of the contribution of fecal elimination to the clearance of these chemicals. The extremely long half-lives of PFAAs, such as 3799 years for PFHxS, 3663 years for PFOA, and 30475 years for PFOS, were caused by the application of LOD/2 instead of ND in workers’ urine samples. The geometric mean or median value of the PFAAs half-lives can better reflect the actual situation.

[4] = Female workers, number 71, menstrual clearance added to renal clearance

What does the source list for O=C(O)C(F)(F)C(F)(F)C(F)(F)C(F)(F)C(F)(F)C(F)(F)C(F)(F)F [PFOA, perfluorooctanoic acid]?
Ratio of serum-to-urine concentrations (S/U), GM ([1]; all samples): 288; Clrenal, GM ([1]; all workers): 0.067 mL/day/kg; Clrenal, range ([1]; all workers, minimum on the basis of LOD/2): 9.0 × 10^−5 to 2.4 mL day^−1 kg^−1; Renal clearance rate (PFOA) ([1]; sampling year 2008): 0.093 mL/day/kg and 0.043 mL/day/kg and 0.141 mL/day/kg and 0.074 mL/day/kg and 0.069 mL/day/kg and 0.087 mL/day/kg and 0.012 mL/day/kg and 0.060 mL/day/kg and 0.127 mL/day/kg and 0.027 mL/day/kg and 0.068 mL/day/kg and 0.030 mL/day/kg and 0.111 mL/day/kg and 0.033 mL/day/kg and 0.047 mL/day/kg and 0.161 mL/day/kg and 0.052 mL/day/kg and 0.214 mL/day/kg and 0.096 mL/day/kg and 0.055 mL/day/kg and 0.042 mL/day/kg and 0.106 mL/day/kg and 0.021 mL/day/kg and 0.157 mL/day/kg and 0.058 mL/day/kg and 0.034 mL/day/kg; Renal clearance rate (PFOA) ([1]; sampling year 2009): 0.174 mL/day/kg and 0.318 mL/day/kg and 0.286 mL/day/kg and 0.110 mL/day/kg and 0.366 mL/day/kg and 0.046 mL/day/kg and 0.403 mL/day/kg and 0.070 mL/day/kg and 0.128 mL/day/kg and 0.090 mL/day/kg and 0.114 mL/day/kg and 0.071 mL/day/kg and 0.289 mL/day/kg and 0.235 mL/day/kg and 0.096 mL/day/kg and 0.264 mL/day/kg and 0.117 mL/day/kg and 0.057 mL/day/kg and 0.051 mL/day/kg and 0.262 mL/day/kg and 0.197 mL/day/kg and 0.077 mL/day/kg and 0.363 mL/day/kg; Renal clearance rate (PFOA) ([1]; sampling year 2011): 0.101 mL/day/kg and 0.205 mL/day/kg and 0.124 mL/day/kg and 0.077 mL/day/kg and 0.096 mL/day/kg and 0.081 mL/day/kg and 0.014 mL/day/kg and 0.080 mL/day/kg and 0.027 mL/day/kg and 0.082 mL/day/kg and 0.120 mL/day/kg and 0.066 mL/day/kg and 0.057 mL/day/kg and 0.037 mL/day/kg and 0.063 mL/day/kg and 0.270 mL/day/kg and 0.075 mL/day/kg and 0.060 mL/day/kg and 0.085 mL/day/kg and 0.181 mL/day/kg and 0.107 mL/day/kg and 0.258 mL/day/kg and 0.674 mL/day/kg and 0.290 mL/day/kg and 0.300 mL/day/kg and 0.058 mL/day/kg; Renal clearance rate (PFOA) ([1]; sampling year 2012): 0.089 mL/day/kg and 0.052 mL/day/kg and 0.038 mL/day/kg and 0.045 mL/day/kg and 0.082 mL/day/kg and 0.114 mL/day/kg and 0.012 mL/day/kg and 0.044 mL/day/kg and 0.098 mL/day/kg and 0.049 mL/day/kg and 0.030 mL/day/kg and 0.027 mL/day/kg and 0.029 mL/day/kg and 0.054 mL/day/kg and 0.033 mL/day/kg and 0.199 mL/day/kg and 0.105 mL/day/kg and 0.069 mL/day/kg and 0.236 mL/day/kg and 0.139 mL/day/kg and 0.040 mL/day/kg and 0.084 mL/day/kg and 0.170 mL/day/kg; Shortest half-life in humans reported in previous studies [2]: 1.2 years; Half-life (GM) ([2]; retired fluorochemical production workers): 3.5 years; Half-life estimated through daily elimination, Max [3, 4]: 11.1 years; Half-life estimated through daily elimination, Median [3, 4]: 2.8 years; Half-life estimated through daily elimination, Min [3, 4]: 0.44 years; Half-life estimated through daily elimination, Min ([3]; Male workers, number 136, renal clearance): 0.48 years; Half-life estimated through daily elimination, Min ([3]; Total workers, number 207): 0.44 years; half-life ([3]; both sexes, Total workers, number 207, read-out: Half-life estimated through daily elimination, GM (converted)): 1500 days; half-life ([3]; both sexes, Total workers, number 207, read-out: Half-life estimated through daily elimination, Median (converted)): 1460 days; half-life ([3]; female, Female workers, number 71, menstrual clearance added to renal clearance, read-out: Half-life estimated through daily elimination, GM (converted)): 1130 days; half-life ([3]; male, Male workers, number 136, renal clearance, read-out: Half-life estimated through daily elimination, GM (converted)): 1720 days; half-life ([3]; male, Male workers, number 136, renal clearance, read-out: Half-life estimated through daily elimination, Median (converted)): 1610 days
